Test results taken from paper PMC12030359, “Fluorine-18-Labeled Positron Emission Tomography Probe Targeting Activated p38α: Design, Synthesis, and In Vivo Evaluation in Rodents” (Pharmaceuticals, 2025).

Legend:
[1] = test system: TNF-α and IL-6 production; parameters: method as in PMID 21375264; conditions: following oral administration; cited from earlier work
[2] = parameters: method as in PMID 21375264; conditions: cited from earlier work
[3] = parameters: method as in PMID 21375264; conditions: acute and chronic toxicity tests in rats; cited from earlier work
[4] = Log D measurement (1-octanol/PBS); assay type: physicochemical; conditions: 1-octanol/PBS (pH = 7.4), room temperature
Protocol: The mixture was shaken for 10 min at room temperature, followed by centrifugation at 10,000 rpm for 10 min. The radioactivity in each phase was measured using a γ counter.

[5] = In vitro stability analysis in mouse plasma; assay type: in vitro ADME; conditions: 2 h incubation in mouse plasma at 37 °C, normal-phase TLC
[6] = Biodistribution study after intravenous administration in normal ddY mice; assay type: in vivo
Protocol: Mice (n = 20, 5 weeks old, 23–29 g) were randomly assigned to five groups (n = 4 each). […] Sample size was limited to four animals per group in adherence to ethical guidelines for the reduction of animal use. Target tissues, including BAT, blood, muscle, bone, brain, heart, lung, stomach, pancreas, spleen, kidneys, liver, and small and large intestines, were excised and weighed, and the radioactivity of each tissue was measured using a γ-counter. The accumulation of radioactivity was expressed as the percentage of the injected dose per gram of tissue (%ID/g) for all tissues except for the stomach, for which it was expressed as the percentage of the injected dose per organ (%ID).

[7] = PET/CT imaging of BAT in normal mouse; assay type: in vivo, ddY mice
Protocol: A small-animal PET/SPECT/CT scanner (E-Class VECTor^6CT^SD, MILabs, Utrecht, The Netherlands) was used, and it was equipped with a high-efficiency general purpose rat and mouse collimator. After the PET imaging, CT imaging was performed (exposure time: 40 ms, tube voltage: 55 kv, tube current: 0.33 mA). After the CT imaging, the mice were immediately euthanized under anesthesia, their BAT was removed and weighed, and its radioactivity was measured (n = 1). The raw data obtained from the PET scan were reconstructed using the SROSEM method and superimposed onto the CT images. […] The SUVs were then calculated using Amide software 1.0.6 (Slashdot Media, San Francisco, CA, USA).

activated p38α = test system: activated p38α; parameters: method as in PMID 34410619, PMID 35760973; conditions: cited from earlier work
[8] = 5 min after i.v. administration
[9] = 15 min after i.v. administration
[10] = 30 min after i.v. administration
[11] = 60 min after i.v. administration
[12] = 120 min after i.v. administration

Compound: Cn1c(=O)c(Oc2ccc(F)cc2F)cc2cnc(NC3CCOCC3)nc21 [R1487, 6-(2,4-difluorophenoxy)-8-methyl-2-(tetrahydro-2H-pyran-4-ylamino)pyrido [2,3-d]pyrimidin-7(8H)-one]
- production of TNF-α and IL-6 [1]: suppress
- clearance route [2]: predominantly hepatic clearance
- oral bioavailability ([2]; monkeys, oral administration): 51.6%
- half-life in blood ([2]; monkeys): 22.5 h
- acceptable tolerability, no severe adverse events [3]: up to 10 mg/kg

Compound: Cn1c(=O)c(Oc2ccc([18F])cc2F)cc2cnc(NC3CCOCC3)nc21 [[^18F]R1487, 6-(4-[^18F]fluoro-2-fluorophenoxy)-8-methyl-2-(tetrahydro-2H-pyran-4-ylamino)-pyrido[2,3-d]pyrimidin-7(8H)-one]
- logD [4]: 2.2
- radioactivity detected in intact form [5]: more than 96%
- Radioactivity in BAT [6, 8]: 16.3 ± 2.7 %ID/g
- Radioactivity in Blood [6, 8]: 2.8 ± 0.1 %ID/g
- Radioactivity in Bone [6, 8]: 6.4 ± 0.7 %ID/g
- Radioactivity in Brain [6, 8]: 2.9 ± 0.5 %ID/g
- Radioactivity in Heart [6, 8]: 5.0 ± 0.8 %ID/g
- Radioactivity in Kidney [6, 8]: 7.7 ± 1.9 %ID/g
- Radioactivity in Large intestine [6, 8]: 2.2 ± 0.7 %ID/g
- Radioactivity in Liver [6, 8]: 11.3 ± 1.9 %ID/g
- Radioactivity in Lung [6, 8]: 4.0 ± 0.6 %ID/g
- Radioactivity in Muscle [6, 8]: 2.7 ± 0.5 %ID/g
- Radioactivity in Pancreas [6, 8]: 4.4 ± 0.9 %ID/g
- Radioactivity in Small intestine [6, 8]: 5.8 ± 1.0 %ID/g
- Radioactivity in Spleen [6, 8]: 4.0 ± 0.9 %ID/g
- Radioactivity in Stomach [6, 8]: 1.1 ± 0.2 %ID
- Radioactivity in BAT [6, 9]: 8.0 ± 2.6 %ID/g
- Radioactivity in Blood [6, 9]: 1.0 ± 0.2 %ID/g
- Radioactivity in Bone [6, 9]: 5.1 ± 0.9 %ID/g
- Radioactivity in Brain [6, 9]: 1.3 ± 0.6 %ID/g
- Radioactivity in Heart [6, 9]: 2.8 ± 0.5 %ID/g
- Radioactivity in Kidney [6, 9]: 5.1 ± 1.3 %ID/g
- Radioactivity in Large intestine [6, 9]: 2.3 ± 0.4 %ID/g
- Radioactivity in Liver [6, 9]: 5.9 ± 1.3 %ID/g
- Radioactivity in Lung [6, 9]: 3.2 ± 0.8 %ID/g
- Radioactivity in Muscle [6, 9]: 2.4 ± 0.3 %ID/g
- Radioactivity in Pancreas [6, 9]: 2.4 ± 0.6 %ID/g
- Radioactivity in Small intestine [6, 9]: 8.6 ± 1.9 %ID/g
- Radioactivity in Spleen [6, 9]: 4.5 ± 0.8 %ID/g
- Radioactivity in Stomach [6, 9]: 1.3 ± 0.5 %ID
- Radioactivity in BAT [6, 10]: 5.2 ± 1.1 %ID/g
- Radioactivity in Blood [6, 10]: 0.7 ± 0.1 %ID/g
- Radioactivity in Bone [6, 10]: 6.7 ± 1.0 %ID/g
- Radioactivity in Brain [6, 10]: 1.0 ± 0.6 %ID/g
- Radioactivity in Heart [6, 10]: 2.3 ± 0.7 %ID/g
- Radioactivity in Kidney [6, 10]: 3.5 ± 0.6 %ID/g
- Radioactivity in Large intestine [6, 10]: 4.3 ± 3.7 %ID/g
- Radioactivity in Liver [6, 10]: 4.7 ± 0.9 %ID/g
- Radioactivity in Lung [6, 10]: 2.3 ± 0.5 %ID/g
- Radioactivity in Muscle [6, 10]: 2.1 ± 0.2 %ID/g
- Radioactivity in Pancreas [6, 10]: 1.9 ± 0.1 %ID/g
- Radioactivity in Small intestine [6, 10]: 16.9 ± 4.0 %ID/g
- Radioactivity in Spleen [6, 10]: 3.3 ± 0.5 %ID/g
- Radioactivity in Stomach [6, 10]: 1.8 ± 0.4 %ID
- Radioactivity in BAT [6, 11]: 2.2 ± 0.6 %ID/g
- Radioactivity in Blood [6, 11]: 0.4 ± 0.1 %ID/g
- Radioactivity in Bone [6, 11]: 6.9 ± 2.9 %ID/g
- Radioactivity in Brain [6, 11]: 0.4 ± 0.2 %ID/g
- Radioactivity in Heart [6, 11]: 1.4 ± 0.1 %ID/g
- Radioactivity in Kidney [6, 11]: 2.4 ± 0.7 %ID/g
- Radioactivity in Large intestine [6, 11]: 4.3 ± 1.6 %ID/g
- Radioactivity in Liver [6, 11]: 3.4 ± 0.3 %ID/g
- Radioactivity in Lung [6, 11]: 1.3 ±0.2 %ID/g
- Radioactivity in Muscle [6, 11]: 1.0 ± 0.1 %ID/g
- Radioactivity in Pancreas [6, 11]: 1.0 ± 0.1 %ID/g
- Radioactivity in Small intestine [6, 11]: 23.8 ± 3.7 %ID/g
- Radioactivity in Spleen [6, 11]: 1.7 ± 0.4 %ID/g
- Radioactivity in Stomach [6, 11]: 4.1 ± 2.2 %ID
- Radioactivity in BAT [6, 12]: 1.0 ± 0.2 %ID/g
- Radioactivity in Blood [6, 12]: 0.2 ± 0.0 %ID/g
- Radioactivity in Bone [6, 12]: 8.7 ± 2.3 %ID/g
- Radioactivity in Brain [6, 12]: 0.2 ± 0.1 %ID/g
- Radioactivity in Heart [6, 12]: 0.7 ± 0.1 %ID/g
- Radioactivity in Kidney [6, 12]: 0.7 ± 0.1 %ID/g
- Radioactivity in Large intestine [6, 12]: 32.6 ± 8.7 %ID/g
- Radioactivity in Liver [6, 12]: 1.8 ± 0.9 %ID/g
- Radioactivity in Lung [6, 12]: 0.4 ± 0.1 %ID/g
- Radioactivity in Muscle [6, 12]: 0.5 ± 0.0 %ID/g
- Radioactivity in Pancreas [6, 12]: 1.0 ± 0.4 %ID/g
- Radioactivity in Small intestine [6, 12]: 13.0 ± 3.4 %ID/g
- Radioactivity in Spleen [6, 12]: 0.9 ± 0.1 %ID/g
- Radioactivity in Stomach [6, 12]: 1.2 ± 0.5 %ID
- time of peak radioactivity in BAT ([6]; post-injection): 5 min
- mean standardized uptake value (SUV) in the BAT ([7]; PET 10–15 min post-intravenous administration, manual ROI): 4.7
- radioactivity in the excised BAT after PET/CT imaging ([7]; γ counter, immediately after PET/CT imaging, n = 1): 11.6 %ID/g

Compound: Cn1c(=O)c(Oc2ccc([77Br])cc2F)cc2cnc(NC3CCOCC3)nc21 [[^77Br]4-BR, 6-(4-[^77Br]bromo-2-fluorophenoxy)-8-methyl-2-(tetrahydro-2H-pyran-4-ylamino)-pyrido[2,3-d]pyrimidin-7(8H)-one]
- inflamed site-to-blood ratio (activated p38α; at 2 h): 4.1
- time of peak radioactivity accumulation in inflamed tissues (activated p38α; post-injection): 15 min
